The values below come from patent publication US20110077581A1, “TARGETED CELLULAR DELIVERY OF NANOPARTICLES” (GEORGIA TECH RESEARCH CORPORATION, priority 2009, published 2011).

Like-named read-outs stand apart in the source and are kept apart here.

Data set [1] relates to MCF-7 cells. The data set can be described thus: In vitro laser photothermal therapy of MCF-7 cells. The data set is classed as cell-based, human. The note with it: MCF-7, 0.5 μM, 24 h. The protocol:
Following this incubation, cell cultures ere gently rinsed in sterile DPBS buffer and replaced with unmodified growth media prior to laser photothermal treatment. Laser photothermal treatment was performed using the 514.5 nm line of an argon ion laser (Innova 300 Coherent) for 2 min at room temperature (0.32 cm^2). Control cells were similarly removed, however, were untreated with the laser.

The conditions of data set [2]: cited from earlier work.
The test system of data set [3] is ERα(+) MCF-7 breast cancer cells. Description: Cell viability assay (MTT or XTT) in ERα(+) MCF-7 breast cancer cells. The class given is cell-based, human. Conditions: conjugate as effective TAM-PEG-SH ligand concentration, read-out: IC50 (50% inhibitory concentration), cell viability. The procedure: Cell culture and nanoparticle incubation. ERα(−) MDA-MB-231 and ERα(+) MCF-7 breast cancer cells (human adenocarcinoma, ATCC) or ERα(+) human squamous cell carcinoma (43-45) (HSC-3) cells were cultured to 10^5 cells/cm^2 in DMEM growth media supplanted with 10% v/v heat-inactivated fetal bovine serum, penicillin (100 U/ml), streptomycin (100 μg/ml), 4.5 g/L glucose, […], without L-glutamine and phenol red at 37° C. in a 5% CO2 humidified atmosphere. Growth media was removed from the cell cultures and replaced with identical media containing gold nanoparticle conjugates heated to 37° C. at time=0 h.
Cell viability assay. Following incubation, growth media containing gold nanoparticle conjugates was removed and cells were rinsed twice in sterile Dulbecco's phosphate buffered saline (DPBS). Mitochondrial dehydrogenase activity was assessed by MTT or XTT spectrophotometric assay (Sigma TOX1, TOX2) following the manufacturer's instructions. The assay was performed using a SpectraMax Plus 384 microplate reader and statistical analysis was performed by t-test.

In the case of `CC/C(=C(\c1ccccc1)c1ccc(OCCN(C)C)cc1)c1ccccc1` [tamoxifen], in data set [1], the “in vitro cytotoxicity in the absence of laser treatment” value was “no appreciable in vitro cytotoxicity”. Also, the “steady-state blood plasma concentration” value in data set [2] (tamoxifen administered at 10 mg/day) was 0.40 µM; in data set [2] (tamoxifen administered at 20 mg/day), 0.81 µM.

For Thiol-pegylated tamoxifen [TAM-PEG-SH], the IC50 stood at 3.6 µM in data set [3] (MCF-7, 24 h incubation); 1.4 µM in data set [3] (MCF-7, 36 h incubation); 1.1 µM in data set [3] (MCF-7, 48 h incubation).
